In US20230382934A1, “HIGH ENTROPY OXIDES AND METHODS OF SYNTHESIS AND USE THEREOF” (Auburn University, priority 2022, published 2023):

Assays:
[1] = T1-weighted relaxivity response to H2O2, 3 T clinical MRI scanner; conditions: Example 1, Mn(II) complex with H4qp4
Experimental: The relaxivities of complex 1 before and during its reaction with H2O2 were assessed using a 3 T MRI scanner (FIG. 27D). T1 values were measured for aqueous solutions containing 0-1.0 mM 1 and 50 mM HEPES buffered to pH 7.00. For each concentration of 1, an oxidized sample was also prepared by adding 10 mM H2O2; the large excess of oxidant was used to ensure as full a turn-on as possible at the timepoints and to facilitate comparisons to manganese-containing MRI contrast agents that were previously prepared and characterized. The T1 values for the H2O2-containing solutions were measured 1 h and 2 h after the reagents were initially mixed. Full series of data were collected for two independently prepared batches of 1 in order to confirm that the results were replicable.
The MRI properties of 1 were assessed using methods that were previously employed in studies of manganese-containing MRI contrast agents. The relaxivity of 1 was measured before and after its reaction with excess H2O2 using a 3 T MRI scanner (FIG. 51). The r1 for the pre-activated complex was calculated from the T1 values of aqueous solutions containing 50 mM HEPES buffered to pH 7.00 and 0-1 mM 1. T1 measurements were also acquired for oxidized samples that contained 10 mM H2O2 in addition to the aforementioned reagents. The T1 values were measured 30 min and 60 min after the solution samples were initially prepared. […]

[2] = Catalase activity (degradation of H2O2, absorbance at 240 nm); assay type: biochemical; conditions: Mn(II) complex, 100 nM, 10 mM H2O2, 100 mM phosphate pH 7.0
Experimental: (§1) FIG. 31 depicts representative kinetic traces for the reaction between 100 nM 1 and 10 mM H2O2 in 100 mM phosphate solution buffered to pH 7.0. The absorbance at 240 nm was monitored over time. Activity values were calculated using the UV-1601PC Kinetics program and converted to an initial rate (vo/[1]T) using the following equation: vo/[1]T=(activity)/[60 s×0.01 μM×0.0000394 μM^−1 cm^−1×1.0 cm].
as §1, with “FIG. 66” for “FIG. 31”, “in 200” for “in 100”, “vo/[1]T=(activity)/[60 s×0.1” for “vo/[1]T=(activity)/[60 s×0.01”, “cm^−1×1.0 cm]” for “cm^−1×1.0 cm].”
FIG. 67, comprising FIG. 67A and FIG. 67B, depicts a Michaelis-Menten fit of the activity of 1. FIG. 67A depicts activity of 1 with increasing concentrations of H2O2. All reactions were performed in 200 mM phosphate buffered to pH 7.0 at 25° C. with an initial 100 nM concentration of 1. […]
In order to assess the ability of the Mn(II) complex to catalyze the degradation of H2O2, we reacted 100 nM 1 with 10 mM H2O2 in 100 mM phosphate solution buffered to pH 7.0 and monitored the absorbance at 240 nm over time. […] The consumption of H2O2 was evaluated using a UV-1601 Shimadzu spectrophotometer.

(1,8-Bis(2,5-dihydroxybenzyl)-1,4,8,11tetraazacyclotetradecane)manganese(II) triflate [Complex 1]
increase in r1 upon oxidation by H2O2 [1]: 130%
initial rate vo/[1]T [2]: 6600 s⁻¹
